The assay deals with T1, DQ8 protein (HLA-DQ8: DQA1*03:01/DQB1*03:02) (Homo sapiens, UniProt P01909+P01920, A209T/A45G/C70Q/D89A/DUP78-78/E183D/E77G/F237L/G63E/H199R/I129T/K197E/L178F/L74F/L98V/Q57E/Q76R/S185I/S97I/T217I/T49S/V73L/Y58L).
T1 construct: made in house; host or cells: insect cells (Drosophila S2 is named only for the biotinylated tetramer preparation)
Kind of assay: Peptide binding competition. As for the experimental part: Recombinant DQ8 protein was produced as previously described. Briefly, soluble DQ8 was purified from insect cell culture supernatants by affinity chromatography and dialyzed against citric/phosphate storage buffer, pH 5.4. For the preparation of HLA class II tetramers, DQ8 protein was in vivo biotinylated in Drosophila S2 cells prior to harvest and dialyzed into citric/phosphate buffer. The biotinylated monomer was loaded with 0.2 mg/ml of peptide by incubating at 37°C for 72 h in the presence of 0.2 mg/ml n-Dodecyl-β-maltoside and 1 mM Pefabloc SC (Sigma–Aldrich, St. Louis, MO). Peptide loaded monomers were subsequently conjugated into tetramers using R-PE streptavidin (Biosource International, Camarillo, CA) at a molar ratio of 8∶1.
Peptide binding curves were simulated by non-linear regression with Prism software (Version 5, GraphPad Software Inc.) using a sigmoidal dose–response curve.

Setting [1] is: competition with 0.04 µM biotinylated GAD65_250–266 index peptide in wells coated with recombinant DQ8 protein, europium-streptavidin, time resolved fluorometer, sigmoidal dose-response fit, read-out: IC50 (binding to DQ8).

Where two headings read alike, the source gives them in different places. Where no end group is shown, it is not given here.

As to `CSCC[C@H](NC(=O)[C@H](CC(=O)O)NC(=O)[C@H](CC(C)C)NC(=O)CNC(=O)[C@@H](NC(=O)[C@H](CO)NC(=O)[C@H](CC(C)C)NC(=O)[C@H](CCC(N)=O)NC(=O)[C@H](CC(N)=O)NC(=O)[C@H](Cc1ccccc1)NC(=O)[C@H](Cc1ccc(O)cc1)NC(=O)[C@H](CCCNC(=N)N)NC(=O)[C@@H]1CCCN1)[C@@H](C)O)C(=O)N[C@H](C(=O)NCC(=O)O)C(C)C` [GAD65 176–190], the IC50 (in general, the concentration needed to halve the response being measured) was more than 50000 nM.

As to AKGTTGFEAHVDKCL [GAD65 461–475], the 50% inhibitory concentration (IC50) under setting [1] is more than 50000 nM.

With FQQDKHYDLSYDTGD [GAD65 427–441], the IC50 under setting [1] was more than 50000 nM.

Take “TAKAMEQMAGSSEQAAEAME [H1MP185–204, reference compound]”: the IC50 came to 1400 nM.

TYEIAPVFVLLEYVT [GAD65 206–220]: the concentration for half-maximal inhibition (IC50) was found to be 1500 nM.

As for YIPPSLRTLEDNEE [GAD65 508–521], the IC50 under setting [1] is more than 50000 nM.

Consider YVVKSFDRSTKVIDFHYPNE [GAD65 121–140], for which the IC50 under setting [1] turned out to be 1600 nM.

(Values after publication PMC4236121 (PLoS ONE, 2014).)
